Reference: publication PMC9856672, “SGC-CAMKK2-1: A Chemical Probe for CAMKK2” (Cells, 2023)

Experiments:
PRKX = biological target: T1, PRKX (Homo sapiens, UniProt P51817); assay: KINOMEscan 1 μM, PRKX; format: binding; conditions: 1000 nM; Entrez PRKX; read-out: Percent Control
T1 construct: purchased Eurofins DiscoverX KINOMEscan
From the text: (§1) Supplement cells-12-00287-s001.zip/File S2. KinomeScan data for the CAMKK2 probe and negative control.xlsx, sheet "SGC-CAMKK2-1" | column: Percent Control

MEK1 = biological target: T2, MEK1 (Homo sapiens, UniProt Q02750); assay: KINOMEscan 1 μM, MEK1; format: binding; conditions: 1000 nM; Entrez MAP2K1; read-out: Percent Control
T2 construct: purchased Eurofins DiscoverX KINOMEscan
From the text: as §1

PKAC-beta = biological target: T3, PKAC-beta (Homo sapiens, UniProt P22694); assay: DiscoverX KINOMEscan binding assay at 1 μM, PKAC-beta; conditions: PKAC-beta (PRKACB); Compound Concentration 1000 nM; read-out: Percent Control
T3 construct: purchased Eurofins DiscoverX KINOMEscan
From the text: as §1

GAK = biological target: T4, GAK (Homo sapiens, UniProt O14976); assay: KINOMEscan 1 μM, GAK; format: binding; conditions: 1000 nM; Entrez GAK; read-out: Percent Control
T4 construct: purchased Eurofins DiscoverX KINOMEscan
From the text: as §1

PIK3CA = biological target: T5, PIK3CA (Homo sapiens, UniProt P42336); assay: DiscoverX KINOMEscan binding assay at 1 μM, PIK3CA; conditions: Compound Concentration 1000 nM, read-out: Percent Control
T5 construct: purchased Eurofins DiscoverX KINOMEscan
From the text: as §1

ULK2 = biological target: T6, ULK2 (Homo sapiens, UniProt Q8IYT8); assay: DiscoverX KINOMEscan binding assay at 1 μM, ULK2; conditions: Compound Concentration 1000 nM, read-out: Percent Control
T6 construct: purchased Eurofins DiscoverX KINOMEscan
From the text: as §1

MAP3K2 = biological target: T7, MAP3K2 (Homo sapiens, UniProt Q9Y2U5); assay: KINOMEscan 1 μM, MAP3K2; format: binding; conditions: 1000 nM; Entrez MAP3K2; read-out: Percent Control
T7 construct: purchased Eurofins DiscoverX KINOMEscan
From the text: as §1

MLK3 = biological target: T8, MLK3 (Homo sapiens, UniProt Q16584); assay: KINOMEscan 1 μM, MLK3; format: binding; conditions: 1000 nM; Entrez MAP3K11; read-out: Percent Control
T8 construct: purchased Eurofins DiscoverX KINOMEscan
From the text: as §1

PIK3CD = biological target: T9, PIK3CD (Homo sapiens, UniProt O00329); assay: DiscoverX KINOMEscan binding assay at 1 μM, PIK3CD; conditions: Compound Concentration 1000 nM, read-out: Percent Control
T9 construct: purchased Eurofins DiscoverX KINOMEscan
From the text: as §1

BIKE = biological target: T10, BIKE (Homo sapiens, UniProt Q9NSY1); assay: KINOMEscan 1 μM, BIKE; format: binding; conditions: 1000 nM; Entrez BMP2K; read-out: Percent Control
T10 construct: purchased Eurofins DiscoverX KINOMEscan
From the text: as §1

SLK = biological target: T11, SLK (Homo sapiens, UniProt Q9H2G2); assay: KINOMEscan 1 μM, SLK; format: binding; conditions: 1000 nM; Entrez SLK; read-out: Percent Control
T11 construct: purchased Eurofins DiscoverX KINOMEscan
From the text: as §1

YSK4 = biological target: T12, YSK4 (Homo sapiens, UniProt Q56UN5); assay: KINOMEscan 1 μM, YSK4; format: binding; conditions: 1000 nM; Entrez MAP3K19; read-out: Percent Control
T12 construct: purchased Eurofins DiscoverX KINOMEscan
From the text: as §1

PRKCQ = biological target: T13, PRKCQ (Homo sapiens, UniProt Q04759); assay: DiscoverX KINOMEscan binding assay at 1 μM, PRKCQ; conditions: Compound Concentration 1000 nM, read-out: Percent Control
T13 construct: purchased Eurofins DiscoverX KINOMEscan
From the text: as §1

YES = biological target: T14, YES (Homo sapiens, UniProt P07947); assay: DiscoverX KINOMEscan binding assay at 1 μM, YES; conditions: YES (YES1); Compound Concentration 1000 nM; read-out: Percent Control
T14 construct: purchased Eurofins DiscoverX KINOMEscan
T14 sequence (P07947 whole entry): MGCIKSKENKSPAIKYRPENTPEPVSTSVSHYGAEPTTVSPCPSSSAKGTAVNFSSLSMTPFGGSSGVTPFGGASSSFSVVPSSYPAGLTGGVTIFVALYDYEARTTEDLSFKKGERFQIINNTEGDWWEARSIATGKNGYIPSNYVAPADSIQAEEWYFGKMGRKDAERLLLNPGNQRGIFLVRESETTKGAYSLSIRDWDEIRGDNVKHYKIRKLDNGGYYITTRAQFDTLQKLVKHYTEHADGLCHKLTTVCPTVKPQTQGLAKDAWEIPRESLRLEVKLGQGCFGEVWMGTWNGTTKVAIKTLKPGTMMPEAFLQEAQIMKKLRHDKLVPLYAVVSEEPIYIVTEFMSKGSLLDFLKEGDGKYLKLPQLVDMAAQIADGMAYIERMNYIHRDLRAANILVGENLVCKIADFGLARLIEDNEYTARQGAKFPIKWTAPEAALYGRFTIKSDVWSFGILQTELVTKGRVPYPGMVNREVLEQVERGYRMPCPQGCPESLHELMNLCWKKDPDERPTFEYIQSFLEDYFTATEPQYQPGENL
From the text: as §1

ERN1 = biological target: T15, ERN1 (Homo sapiens, UniProt O75460); assay: KINOMEscan 1 μM, ERN1; format: binding; conditions: 1000 nM; Entrez ERN1; read-out: Percent Control
T15 construct: purchased Eurofins DiscoverX KINOMEscan
From the text: as §1

AKT2 = biological target: T16, AKT2 (Homo sapiens, UniProt P31751); assay: KINOMEscan 1 μM, AKT2; format: binding; conditions: 1000 nM; Entrez AKT2; read-out: Percent Control
T16 construct: purchased Eurofins DiscoverX KINOMEscan
From the text: as §1

GRK2 = biological target: T17, GRK2 (Homo sapiens, UniProt P25098); assay: KINOMEscan 1 μM, GRK2; format: binding; conditions: 1000 nM; Entrez ADRBK1; read-out: Percent Control
T17 construct: purchased Eurofins DiscoverX KINOMEscan
From the text: as §1

PIK3CA(H1047Y) = biological target: T18, PIK3CA(H1047Y) (Homo sapiens, UniProt P42336, H1047Y); assay: DiscoverX KINOMEscan binding assay at 1 μM, PIK3CA(H1047Y); conditions: Compound Concentration 1000 nM, read-out: Percent Control
T18 construct: purchased Eurofins DiscoverX KINOMEscan
From the text: as §1

MLK1 = biological target: T19, MLK1 (Homo sapiens, UniProt P80192); assay: KINOMEscan 1 μM, MLK1; format: binding; conditions: 1000 nM; Entrez MAP3K9; read-out: Percent Control
T19 construct: purchased Eurofins DiscoverX KINOMEscan
T19 sequence (P80192 whole entry): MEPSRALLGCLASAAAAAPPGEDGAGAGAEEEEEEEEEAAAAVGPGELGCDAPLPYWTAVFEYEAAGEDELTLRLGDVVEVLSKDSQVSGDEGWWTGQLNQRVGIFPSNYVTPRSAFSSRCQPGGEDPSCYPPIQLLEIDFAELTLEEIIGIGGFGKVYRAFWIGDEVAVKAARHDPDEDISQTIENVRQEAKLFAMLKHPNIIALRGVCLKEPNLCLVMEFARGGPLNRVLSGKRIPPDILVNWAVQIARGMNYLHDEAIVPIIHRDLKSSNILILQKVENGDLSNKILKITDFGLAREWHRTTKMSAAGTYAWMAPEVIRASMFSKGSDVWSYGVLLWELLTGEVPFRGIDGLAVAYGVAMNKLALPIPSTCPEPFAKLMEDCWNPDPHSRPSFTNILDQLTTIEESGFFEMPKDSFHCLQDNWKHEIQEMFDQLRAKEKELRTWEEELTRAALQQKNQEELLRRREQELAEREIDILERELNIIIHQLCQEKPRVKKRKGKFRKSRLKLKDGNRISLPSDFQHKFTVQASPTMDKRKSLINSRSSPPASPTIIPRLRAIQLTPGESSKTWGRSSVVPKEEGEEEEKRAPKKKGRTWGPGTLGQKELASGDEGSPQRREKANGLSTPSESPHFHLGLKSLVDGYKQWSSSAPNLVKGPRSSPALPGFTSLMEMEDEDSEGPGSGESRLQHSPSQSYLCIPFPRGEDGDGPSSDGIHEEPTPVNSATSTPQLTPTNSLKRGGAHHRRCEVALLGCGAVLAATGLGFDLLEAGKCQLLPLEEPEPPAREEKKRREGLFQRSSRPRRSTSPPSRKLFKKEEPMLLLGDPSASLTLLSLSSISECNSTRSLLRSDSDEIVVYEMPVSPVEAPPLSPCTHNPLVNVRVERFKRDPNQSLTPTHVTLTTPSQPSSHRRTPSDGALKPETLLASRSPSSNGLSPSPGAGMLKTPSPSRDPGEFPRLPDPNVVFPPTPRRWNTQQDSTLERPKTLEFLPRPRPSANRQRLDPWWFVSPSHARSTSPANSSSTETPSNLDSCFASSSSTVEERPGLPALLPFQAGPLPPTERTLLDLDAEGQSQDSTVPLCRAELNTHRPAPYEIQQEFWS
From the text: as §1

CDK9 = biological target: T20, CDK9 (Homo sapiens, UniProt P50750); assay: KINOMEscan at 1 μM, CDK9; format: binding; conditions: 1000 nM, read-out: Percent Control
T20 construct: purchased Eurofins DiscoverX KINOMEscan
From the text: (§2) Supplement cells-12-00287-s001.zip/File S2. KinomeScan data for the CAMKK2 probe and negative control.xlsx, sheet "SGC-CAMKK2-1N" | column: Percent Control

FLT3(D835H) = biological target: T21, FLT3(D835H) (Homo sapiens, UniProt P36888, D835H); assay: KINOMEscan at 1 μM, FLT3(D835H); format: binding; conditions: 1000 nM, read-out: Percent Control
T21 construct: purchased Eurofins DiscoverX KINOMEscan
From the text: as §2

GSK3B = biological target: T22, GSK3B (Homo sapiens, UniProt P49841); assay: KINOMEscan at 1 μM, GSK3B; format: binding; conditions: 1000 nM, read-out: Percent Control
T22 construct: purchased Eurofins DiscoverX KINOMEscan
From the text: as §2

IKK-beta = biological target: T23, IKK-beta (Homo sapiens, UniProt O14920); assay: KINOMEscan at 1 μM, IKK-beta; format: binding; conditions: 1000 nM, read-out: Percent Control
T23 construct: purchased Eurofins DiscoverX KINOMEscan
T23 sequence (O14920 whole entry): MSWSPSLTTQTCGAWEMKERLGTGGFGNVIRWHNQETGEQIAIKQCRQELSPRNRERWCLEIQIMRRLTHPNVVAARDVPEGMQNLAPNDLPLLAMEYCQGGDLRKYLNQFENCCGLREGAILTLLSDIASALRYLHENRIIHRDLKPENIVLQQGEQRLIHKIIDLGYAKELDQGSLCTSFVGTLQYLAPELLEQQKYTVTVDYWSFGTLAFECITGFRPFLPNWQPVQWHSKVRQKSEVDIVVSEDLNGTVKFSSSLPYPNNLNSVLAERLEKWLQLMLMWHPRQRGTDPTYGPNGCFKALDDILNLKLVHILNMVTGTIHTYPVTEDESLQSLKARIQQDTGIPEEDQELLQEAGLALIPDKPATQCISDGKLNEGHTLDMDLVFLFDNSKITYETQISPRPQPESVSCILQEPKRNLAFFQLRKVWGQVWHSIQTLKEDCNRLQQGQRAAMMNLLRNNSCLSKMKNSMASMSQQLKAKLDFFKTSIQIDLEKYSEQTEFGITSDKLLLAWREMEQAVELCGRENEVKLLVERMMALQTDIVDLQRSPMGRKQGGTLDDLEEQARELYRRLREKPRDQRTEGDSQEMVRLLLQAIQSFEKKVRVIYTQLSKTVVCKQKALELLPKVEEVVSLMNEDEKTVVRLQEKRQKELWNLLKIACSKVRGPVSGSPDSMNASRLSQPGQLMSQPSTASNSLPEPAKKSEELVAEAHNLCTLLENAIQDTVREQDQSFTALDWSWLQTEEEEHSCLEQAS
From the text: as §2

FGFR3(G697C) = biological target: T24, FGFR3(G697C) (Homo sapiens, UniProt P22607, G697C); assay: KINOMEscan at 1 μM, FGFR3(G697C); format: binding; conditions: 1000 nM, read-out: Percent Control
T24 construct: purchased Eurofins DiscoverX KINOMEscan
From the text: as §2

TNK1 = biological target: T25, TNK1 (Homo sapiens, UniProt Q13470); assay: KINOMEscan binding assay at 1 μM, TNK1; conditions: Compound Concentration 1000 nM; read-out: Percent Control
T25 construct: purchased Eurofins DiscoverX KINOMEscan
From the text: as §2

CDC2L1 = biological target: T26, CDC2L1 (Homo sapiens, UniProt P21127); assay: KINOMEscan at 1 μM, CDC2L1; format: binding; conditions: 1000 nM, read-out: Percent Control
T26 construct: purchased Eurofins DiscoverX KINOMEscan
T26 sequence (P21127 whole entry): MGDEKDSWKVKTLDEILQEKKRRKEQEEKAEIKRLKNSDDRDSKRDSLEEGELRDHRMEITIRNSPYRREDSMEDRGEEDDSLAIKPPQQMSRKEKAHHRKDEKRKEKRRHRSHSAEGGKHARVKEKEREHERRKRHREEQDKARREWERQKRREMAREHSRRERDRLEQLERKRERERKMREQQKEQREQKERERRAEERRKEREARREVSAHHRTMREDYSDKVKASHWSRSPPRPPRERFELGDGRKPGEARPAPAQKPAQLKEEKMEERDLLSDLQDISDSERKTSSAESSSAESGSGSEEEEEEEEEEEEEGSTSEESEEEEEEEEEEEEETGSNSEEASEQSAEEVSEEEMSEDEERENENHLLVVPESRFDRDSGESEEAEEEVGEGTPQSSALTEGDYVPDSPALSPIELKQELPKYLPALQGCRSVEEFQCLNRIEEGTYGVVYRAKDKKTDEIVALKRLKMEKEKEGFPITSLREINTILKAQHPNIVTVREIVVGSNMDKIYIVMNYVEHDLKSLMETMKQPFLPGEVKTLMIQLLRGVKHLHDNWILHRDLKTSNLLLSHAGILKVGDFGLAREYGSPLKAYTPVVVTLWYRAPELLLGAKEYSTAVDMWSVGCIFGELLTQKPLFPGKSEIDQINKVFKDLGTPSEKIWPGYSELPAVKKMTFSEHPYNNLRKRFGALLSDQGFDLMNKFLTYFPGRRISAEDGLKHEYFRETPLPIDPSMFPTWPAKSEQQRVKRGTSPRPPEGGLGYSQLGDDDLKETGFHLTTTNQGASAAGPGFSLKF
From the text: as §2

LATS2 = biological target: T27, LATS2 (Homo sapiens, UniProt Q9NRM7); assay: KINOMEscan at 1 μM, LATS2; format: binding; conditions: 1000 nM, read-out: Percent Control
T27 construct: purchased Eurofins DiscoverX KINOMEscan
T27 sequence (Q9NRM7 whole entry): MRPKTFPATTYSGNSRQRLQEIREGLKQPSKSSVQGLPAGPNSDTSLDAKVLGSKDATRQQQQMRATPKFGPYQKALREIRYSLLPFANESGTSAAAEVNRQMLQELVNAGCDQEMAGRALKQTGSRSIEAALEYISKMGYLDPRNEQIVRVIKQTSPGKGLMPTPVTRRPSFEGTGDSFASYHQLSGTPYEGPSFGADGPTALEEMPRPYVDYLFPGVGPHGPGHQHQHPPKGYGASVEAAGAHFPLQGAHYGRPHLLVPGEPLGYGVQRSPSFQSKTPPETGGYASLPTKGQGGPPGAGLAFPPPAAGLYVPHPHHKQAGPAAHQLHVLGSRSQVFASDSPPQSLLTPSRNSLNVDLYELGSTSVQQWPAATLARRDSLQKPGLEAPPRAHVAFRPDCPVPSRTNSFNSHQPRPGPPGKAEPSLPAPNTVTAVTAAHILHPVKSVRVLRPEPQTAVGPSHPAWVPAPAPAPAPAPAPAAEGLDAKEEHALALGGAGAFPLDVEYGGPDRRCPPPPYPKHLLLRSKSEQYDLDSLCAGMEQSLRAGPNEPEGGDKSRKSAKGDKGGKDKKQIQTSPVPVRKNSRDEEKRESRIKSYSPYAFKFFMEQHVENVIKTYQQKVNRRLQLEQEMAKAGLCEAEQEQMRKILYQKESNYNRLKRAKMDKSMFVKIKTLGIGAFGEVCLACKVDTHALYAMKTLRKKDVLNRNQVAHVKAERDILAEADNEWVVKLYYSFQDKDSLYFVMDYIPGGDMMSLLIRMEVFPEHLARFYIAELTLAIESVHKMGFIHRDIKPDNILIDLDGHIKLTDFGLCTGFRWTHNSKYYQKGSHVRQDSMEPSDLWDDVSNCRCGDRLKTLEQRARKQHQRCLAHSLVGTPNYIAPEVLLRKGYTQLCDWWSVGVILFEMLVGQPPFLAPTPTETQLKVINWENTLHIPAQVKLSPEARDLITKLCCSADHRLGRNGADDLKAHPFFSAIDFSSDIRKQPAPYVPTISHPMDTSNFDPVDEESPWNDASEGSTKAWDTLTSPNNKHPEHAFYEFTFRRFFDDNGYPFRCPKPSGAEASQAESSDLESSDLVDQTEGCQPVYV
From the text: as §2

ADCK3 = biological target: T28, ADCK3 (Homo sapiens, UniProt Q8NI60); assay: KINOMEscan at 1 μM, ADCK3; format: binding; conditions: 1000 nM, read-out: Percent Control
T28 construct: purchased Eurofins DiscoverX KINOMEscan
From the text: as §2

FGFR2 = biological target: T29, FGFR2 (Homo sapiens, UniProt P21802); assay: KINOMEscan at 1 μM, FGFR2; format: binding; conditions: 1000 nM, read-out: Percent Control
T29 construct: purchased Eurofins DiscoverX KINOMEscan
From the text: as §2

IGF1R = biological target: T30, IGF1R (Homo sapiens, UniProt P08069); assay: KINOMEscan binding assay at 1 μM, IGF1R; conditions: Compound Concentration 1000 nM; read-out: Percent Control
T30 construct: purchased Eurofins DiscoverX KINOMEscan
From the text: as §2

BRAF(V600E) = biological target: T31, BRAF(V600E) (Homo sapiens, UniProt P15056, V600E); assay: KINOMEscan at 1 μM, BRAF(V600E); format: binding; conditions: 1000 nM, read-out: Percent Control
T31 construct: purchased Eurofins DiscoverX KINOMEscan
From the text: as §2

ARK5 = biological target: T32, ARK5 (Homo sapiens, UniProt O60285); assay: KINOMEscan at 1 μM, ARK5; format: binding; conditions: 1000 nM, read-out: Percent Control
T32 construct: purchased Eurofins DiscoverX KINOMEscan
From the text: as §2

PLK1 = biological target: T33, PLK1 (Homo sapiens, UniProt P53350); assay: KINOMEscan at 1 μM, PLK1; format: binding; conditions: 1000 nM, read-out: Percent Control
T33 construct: purchased Eurofins DiscoverX KINOMEscan
From the text: as §2

MST4 = biological target: T34, MST4 (Homo sapiens, UniProt Q9P289); assay: KINOMEscan at 1 μM, MST4; format: binding; conditions: 1000 nM, read-out: Percent Control
T34 construct: purchased Eurofins DiscoverX KINOMEscan
T34 sequence (Q9P289 whole entry): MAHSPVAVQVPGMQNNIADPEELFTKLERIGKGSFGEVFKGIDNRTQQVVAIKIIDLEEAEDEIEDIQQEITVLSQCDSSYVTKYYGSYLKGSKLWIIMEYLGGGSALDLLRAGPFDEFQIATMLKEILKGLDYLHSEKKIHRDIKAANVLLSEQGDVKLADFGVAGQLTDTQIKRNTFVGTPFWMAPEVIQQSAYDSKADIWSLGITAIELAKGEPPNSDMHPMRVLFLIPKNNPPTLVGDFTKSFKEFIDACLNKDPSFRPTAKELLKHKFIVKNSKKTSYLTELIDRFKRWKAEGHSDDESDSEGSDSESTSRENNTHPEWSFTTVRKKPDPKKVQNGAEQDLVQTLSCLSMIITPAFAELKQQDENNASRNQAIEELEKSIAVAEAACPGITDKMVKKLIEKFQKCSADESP
From the text: as §2

T1 sequence (P51817 whole entry): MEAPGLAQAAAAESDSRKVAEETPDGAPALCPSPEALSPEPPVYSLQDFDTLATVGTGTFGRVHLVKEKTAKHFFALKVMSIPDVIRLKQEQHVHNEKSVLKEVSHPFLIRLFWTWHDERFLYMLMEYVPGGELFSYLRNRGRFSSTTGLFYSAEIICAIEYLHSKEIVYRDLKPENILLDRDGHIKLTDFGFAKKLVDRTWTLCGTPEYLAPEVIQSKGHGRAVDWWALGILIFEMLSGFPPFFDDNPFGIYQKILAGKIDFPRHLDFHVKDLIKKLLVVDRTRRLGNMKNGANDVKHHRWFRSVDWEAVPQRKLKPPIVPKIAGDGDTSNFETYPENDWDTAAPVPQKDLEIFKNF

Work on `Cc1cccc(-c2cnc3occ(-c4ccc(C(=O)O)c(C5CCCC5)c4)c3c2)c1` [SGC-CAMKK2-1 (YL-36)] yielded a remaining binding at 1 µM (PRKX) of 79%, a remaining binding at 1 µM (MEK1) of 100% and a remaining binding at 1 µM (PKAC-beta) of 100%. It also gave a remaining binding at 1 µM (GAK) of 80%, a remaining binding at 1 µM (PIK3CA) of 100% and a remaining binding at 1 µM (ULK2) of 100%. The remaining binding at 1 µM (MAP3K2) was 100%, the remaining binding at 1 µM (MLK3) was 89% and the remaining binding at 1 µM (PIK3CD) was 100%. It also gave a remaining binding at 1 µM (BIKE) of 100%, a remaining binding at 1 µM (SLK) of 85% and a remaining binding at 1 µM (YSK4) of 85%. It also gave a remaining binding at 1 µM (PRKCQ) of 100%, a remaining binding at 1 µM (YES) of 100% and a remaining binding at 1 µM (ERN1) of 100%. For the same molecule, the remaining binding at 1 µM (AKT2) was 100%, the remaining binding at 1 µM (GRK2) was 100% and the remaining binding at 1 µM (PIK3CA(H1047Y)) was 100%. It also gave a remaining binding at 1 µM (MLK1) of 100%.
Molecule `O=C(O)c1ccc(-c2coc3ncc(-c4ccccc4)cc23)cc1Cl` [SGC-CAMKK2-1N (UNC-YL-83)] has a remaining binding at 1 µM (CDK9) of 89%, a remaining binding at 1 µM (FLT3(D835H)) of 88% and a remaining binding at 1 µM (GSK3B) of 47%. It also gave a remaining binding at 1 µM (IKK-beta) of 87%, a remaining binding at 1 µM (FGFR3(G697C)) of 65% and a remaining binding at 1 µM (TNK1) of 100%. For the same molecule, the remaining binding at 1 µM (CDC2L1) was 72%, the remaining binding at 1 µM (LATS2) was 87% and the remaining binding at 1 µM (ADCK3) was 68%. The remaining binding at 1 µM (FGFR2) was 84%, the remaining binding at 1 µM (IGF1R) was 100% and the remaining binding at 1 µM (BRAF(V600E)) was 87%. The remaining binding at 1 µM (ARK5) was 84%, the remaining binding at 1 µM (PLK1) was 79% and the remaining binding at 1 µM (MST4) was 64%.
